Reference: patent US20190038714A1, “ANTI-INFLAMMATORY COMPOSITION COMPRISING CLAVASPIRIN PEPTIDE ANALOGUE AS EFFECTIVE INGREDIENT” (INDUSTRY-ACADEMIC COOPERATION FOUNDATION, CHOSUN UNIVERSITY, priority 2015, published 2019)
Ends that are not written are not given here.

Columns and labels:
S. aureus = conditions: 24 hours at 37° C.
human erythrocyte = assay: Erythrocyte hemolytic activity; assay type: cell-based; conditions: for Erythrocyte disrupting ability %: 1 hour at 37° C., Triton X-100 = 100%
Method: To compare the cytotoxicity among the peptides that are produced by the method of Example 1, erythrocyte hemolytic activity of the synthesized peptide was measured.
Specifically, human erythrocyte was diluted in physiological saline (PBS, pH 7.0) to have concentration of 8%, and clavaspirin, CSP-4, and melittin peptide were serially diluted (i.e., dilution to 1/2 concentration from higher concentration for each dilution) followed by reaction for 1 hour at 37° C. After that, the amount of hemoglobin contained in a supernatant collected by centrifuge at 1,000×g was determined by measuring the absorbance at a wavelength of 414 nm. As a control group to be used as a reference for cell disruption level, the supernatant collected by a treatment with 1% Triton X-100 (Sigma, USA) and a reaction for 1 hour at 37° C. was used for absorbance measurement. By setting the erythrocyte hemolytic activity of Triton X-100 at 100%, the hemolytic activity of the above peptides was calculated using the following mathematical equation 1.
Erythrocyte disrupting ability (hemolysis) (%)=(Absorbance A−Absorbance B)/(Absorbance C−Absorbance B)×100 [Mathematical equation 1]
(in the above equation, Absorbance A indicates the absorbance of a reaction solution treated with each peptide, in which the absorbance is measured at a wavelength of 414 nm; Absorbance B indicates the absorbance of a reaction solution treated with PBS, in which the absorbance is measured at a wavelength of 414 nm; and Absorbance C indicates the absorbance of a reaction solution treated with 1% Triton X-100, in which the absorbance is measured at a wavelength of 414 nm).

skin of a hairless mouse = assay: Scanning electron microscopy of hairless mouse skin with induced dermatitis; assay type: in vivo; conditions: 200 μg/ml
Method: Skin of a 6-week old hairless mouse was treated with 100 μl of S. aureus MRSA 0027 (1×10^8 cells/ml) to induce inflammation. Thirty minutes later, the skin was further treated with CSP-4 peptide at 100 μg/ml or 200 μg/ml. From each of a mouse having induced inflammation further treated with the peptide, a mouse treated only with the peptide, and a mouse having induced inflammation, tissues were collected and washed using physiological saline (PBS). Then, the tissues were fixed for 24 hours at room temperature by using 4% PFA (paraformaldehyde). […] According to H&E staining and immunohistochemical method, a change in tissues and onset of an anti-inflammatory cytokine or TLR2 receptor was determined. […] Remaining liquids were removed by TBST buffer such that the tissues are not detached, and a secondary antibody linked with green fluorescence (Got anti-mouse IgG (HRP) LF-SA5001-conjugated) was allowed to bind thereto. Next, each tissue was determined by using a fluorescent microscope (I×71, Olympus, Japan).
From the mouse tissues which have been treated according to the method of above Example 8, a paraffin block was prepared. […] Next, a change in the tissues was determined by using scanning electron microscopy (SEM).

HaCaT cell line = assay: Cytotoxicity in normal cell line (MTT); assay type: cell-based, human; conditions: HaCaT cell line
Method: To determine the cytotoxicity of the peptide produced by the method of Example 1 in normal cell line, toxicity was measured by using human keratinocyte forming cell line (HaCaT cell line, Dr. NE. Fusenig, Heidelberg, Germany).
Specifically, HaCaT cells which have been cultured in DMEM medium containing 10% FBS (Fetal Bovine Serum) were aliquoted in a 96-well plate (3×10^3 cells/well). […] After the culture, a reaction solution containing 5 mg/ml MTT (Thiazolyl Blue Tetrazolium Bromide) dissolved in physiological saline (PBS) was added in an amount of 20 μl to each well and allowed to react for 4 hours. After that, the supernatant was removed, and, by dissolving the formed MTT crystals by adding 200 μl of DMSO, the absorbance at 560 nm was measured to determine the cell survival ability.

Row | Substance | MIC (S. aureus) | Erythrocyte disrupting ability % (human erythrocyte; peptide 25 μM) | Erythrocyte disrupting ability % (human erythrocyte; peptide 50 μM) | Erythrocyte disrupting ability % (human erythrocyte; peptide 100 μM) | Erythrocyte disrupting ability % (human erythrocyte; peptide 200 μM) | Erythrocyte disrupting ability % (human erythrocyte; peptide 400 μM) | change in mouse skin (SEM), treated only with the peptide (skin of a hairless mouse) | hemolysis (FIG. 1) (human erythrocyte; at 500 μg/ml) | hemolytic activity (human erythrocyte; concentration of 200 μM or less) | cytotoxicity in human keratinocyte forming cell line (HaCaT cell line)
1 | FLRFIGSVIHGIGHLVHHIGVAL-NH2 [Clavaspirin] | 16 µM | 100% | 100% | 100% | 100% | 100% | – | – | – | –
2 | FLRFIGSVKHGKGHLVHHIGVAL-NH2 [CSP-4] | 8 µM | 0% | 0% | 0% | 1% | 10% | no change in mouse skin is induced | less than 1% | almost no hemolytic activity | almost no cytotoxicity
